In patent US20240317743A1, “Solid Forms of BCL-2 Inhibitors, Method of Preparation, and Use Thereof” (BeiGene, Ltd., priority 2021, published 2024):
In brackets after ≈: the same amount, converted by molar mass.

Tests used:
Type in all cases: physicochemical
[1] = DVS (Method A) water uptake / hygroscopicity; settings: 25° C./80% RH
Procedure: DVS of the obtained forms in the present disclosure was measured via an SMS (Surface Measurement Systems) DVS Intrinsic, without special instructions (Method A). The relative humidity at 25° C. was calibrated against deliquescence point of LiCl, Mg(NO3)2 and KCl. Parameters for the DVS test are listed as follows. [table]

[2] = Solid form stability of Form B: slurry or shaking in acetone/H2O system at 50° C., XRPD
Procedure: Evaluation of solid form stability of Form B was performed in acetone/H2O system at 50° C. About 2 mg of Form B sample was used to slurry or shake in the acetone/H2O (1:9, v/v) and H2O solution (saturated by amorphous sample).

[3] = Physical stability: storage under humidity/temperature, form checked by XRPD
Procedure: To evaluate the physicochemical stability, store 1˜3 mg of Forms B, S, M, R, F, H and N samples were stored under 25° C./60% RH or 40° C./75% RH conditions for one week (unsealed) or 80° C. condition for 24 hrs (sealed).

[4] = Storage at RT, form checked by XRPD overlay; settings: RT
Procedure: Form K was speculated as a methyl acetate solvate.
Thus, Form L was speculated as a metastable anhydrate/hydrate which could be de-solvated from the wet cake from the solvent system.
(peak) before decomposition (FIG. 16B). According to the integration of ^1H NMR result (FIG. 16C), the theoretical weight of chlorobenzene was calculated as 9.8%, which matched with the TGA weight loss. […] After heating the sample to 140° C., more diffraction peaks disappeared. Combined with the TGA, ^1H NMR data and heating experiment, Form P was speculated as a chlorobenzene solvate.

[5] = Solid form solubility, concentration by HPLC at 24 hours
Procedure: The solubility of Compound 1 in different physical forms was tested in water, 0.1 N HCl, pH 4.5 acetate buffer and pH 6.8 phosphate buffer. At 24 hours of time point, the concentration of Compound 1 was detected by HPLC.

[6] = Long term and accelerated physical and chemical stability test, impurities by HPLC
Procedure: Long term and accelerated stability studies were conducted in different physical forms of Compound 1, by storing the samples at 25±2° C./60±5% RH and 40±2° C./75±5% RH conditions for up to 6 months. And, the content of the total impurities of each sample was tested by HPLC.

## CC(C)c1ccccc1[C@@H]1CCCN1C1CC2(CCN(c3ccc(C(=O)NS(=O)(=O)c4ccc(NCC5CCC(C)(O)CC5)c([N+](=O)[O-])c4)c(Oc4cnc5[nH]ccc5c4)c3)CC2)C1 (stereo partly drawn) [Form B, 2-((1H-pyrrolo[2,3-b]pyridin-5-yl)oxy)-N-((4-((((1r,4r)-4-hydroxy-4-methylcyclohexyl)methyl)amino)-3-nitrophenyl)sulfonyl)-4-(2-((S)-2-(2-isopropylphenyl)pyrrolidin-1-yl)-7-azaspiro[3.5]nonan-7-yl)benzamide]
[1]
  hygroscopicity: slight hygroscopicity
  water uptake: 0.9%
[2]; shaking in H2O, about 4 hours
  crystalline status (XRPD overlay): no form change was observed
[2]; shaking in H2O, about 4 days
  crystalline status (XRPD overlay): no form change was observed
[2]; shaking in acetone/H2O (1:9, v/v), about 4 hours
  crystalline status (XRPD overlay): no form change was observed
[2]; shaking in acetone/H2O (1:9, v/v), about 4 days
  crystalline status (XRPD overlay): no form change was observed
[2]; slurrying in H2O, about 4 hrs
  crystalline status (XRPD overlay): no form change was observed
[2]; slurrying in H2O, about 4 days
  crystalline status (XRPD overlay): a decrease of crystallinity was observed
[2]; slurrying in acetone/H2O (1:9, v/v), about 4 days
  crystalline status (XRPD overlay): a decrease of crystallinity was observed
[3]; 25° C./60% RH, one week, unsealed
  form change (XRPD overlay): no form change
[3]; 40° C./75% RH, one week, unsealed
  form change (XRPD overlay): no form change
[3]; 80° C., sealed, 24 hrs
  form change (XRPD overlay): no form change

## CC(C)c1ccccc1[C@@H]1CCCN1C1CC2(CCN(c3ccc(C(=O)NS(=O)(=O)c4ccc(NCC5CCC(C)(O)CC5)c([N+](=O)[O-])c4)c(Oc4cnc5[nH]ccc5c4)c3)CC2)C1 (stereo partly drawn) [Form T, 2-((1H-pyrrolo[2,3-b]pyridin-5-yl)oxy)-N-((4-((((1r,4r)-4-hydroxy-4-methylcyclohexyl)methyl)amino)-3-nitrophenyl)sulfonyl)-4-(2-((S)-2-(2-isopropylphenyl)pyrrolidin-1-yl)-7-azaspiro[3.5]nonan-7-yl)benzamide]
[4]; ~3 days
  form change on storage: convert back to Form N

## CC(C)c1ccccc1[C@@H]1CCCN1C1CC2(CCN(c3ccc(C(=O)NS(=O)(=O)c4ccc(NCC5CCC(C)(O)CC5)c([N+](=O)[O-])c4)c(Oc4cnc5[nH]ccc5c4)c3)CC2)C1 (stereo partly drawn) [Form P, 2-((1H-pyrrolo[2,3-b]pyridin-5-yl)oxy)-N-((4-((((1r,4r)-4-hydroxy-4-methylcyclohexyl)methyl)amino)-3-nitrophenyl)sulfonyl)-4-(2-((S)-2-(2-isopropylphenyl)pyrrolidin-1-yl)-7-azaspiro[3.5]nonan-7-yl)benzamide]
[4]; ~4 weeks
  form change on storage (XRPD comparison): some of the diffraction peaks disappeared

## CC(C)c1ccccc1[C@@H]1CCCN1C1CC2(CCN(c3ccc(C(=O)NS(=O)(=O)c4ccc(NCC5CCC(C)(O)CC5)c([N+](=O)[O-])c4)c(Oc4cnc5[nH]ccc5c4)c3)CC2)C1 (stereo partly drawn) [Compound 1 amorphous, 2-((1H-pyrrolo[2,3-b]pyridin-5-yl)oxy)-N-((4-((((1r,4r)-4-hydroxy-4-methylcyclohexyl)methyl)amino)-3-nitrophenyl)sulfonyl)-4-(2-((S)-2-(2-isopropylphenyl)pyrrolidin-1-yl)-7-azaspiro[3.5]nonan-7-yl)benzamide]
[1]; listed as amorphous form
  water uptake: 1.8%
[5]; 0.1 N HCl
  solubility: 35.30 µg/mL (≈ 39.7 µM)
[5]; pH 4.5 acetate buffer
  solubility: no Compound 1 was detected
[5]; pH 6.8 phosphate buffer
  solubility: no Compound 1 was detected
[5]; water
  solubility: no Compound 1 was detected
[6]; 25±2° C./60±5% RH and 40±2° C./75±5% RH, up to 6 months
  change of chemical purity: reduced significantly
[6]; after 6 months at 40±2° C./75±5% RH
  total content of impurities: 4.2%
[6]; before storage (initial)
  total content of impurities: 2.10%
